Assays:
[1] = 3-day PK study in healthy mice; assay type: in vivo; conditions: for liver level: 6 h after last injection
Procedure: Samples were prepared as described in [10] with modifications to accommodate the small tissue sizes and enhance the detection sensitivity. Quantitative liquid chromatography electrospray-ionization tandem mass spectrometry (LCMS/MS) analysis was performed on a Shimadzu 20A series HPLC (LC)—Applied Biosystems/MDS Sciex API 3200 QTrap or API 4000 QTrap tandem-mass spectrometer (MS/MS) as described earlier. The use of heptafluorobutyric acid (HFBA) mobile phase modifier as an ion-pairing agent increases the overall lipophilicity and volatility, which increases the retention and ionization efficiency of the analytes, affording an abundance of HFBA-associated ions. […] Since oxygen atoms are buried within the porphyrin cavity and thus not easily solvated, these compounds maintain similar redox properties and lipophilicity as their parent hexyl analogs, which makes them co-elute from the HPLC column and thus can be used as internal standards. (OH)FeTnBuOE-2-PyP^4+ was prepared as described for other Fe(III) N-alkylpyridylporphyrins and analogous (H2O)MnTnBuOE-2-PyP^5+ [13, 16]. The solvents employed were: A = 95:5 H2O:MeCN (0.1% HFBA); B = MeCN (0.1% HFBA). […] With the chosen solvent system, all four atropoisomers collapsed into a single peak, enhancing the sensitivity of the method to as low as 0.5 nM (nanomoles per L of tissue homogenate). Analyses were performed using a Phenomenex Luna C18 guard cartridge (ID × L, 2 × 4 mm) only. […] Their structures are also shown. Calibration samples in the 1–300 nM or 0.1–30 μM range (depending on the expected levels of MP) were prepared by adding known amounts of serially diluted pure standards into the plasma or homogenates of related tissues. The response was calculated as the ratio between the standard peak area and the internal standard peak area.
The study was designed to follow the dosing regime in a 3-day mouse MCAO efficacy study. […] Three mice were used per compound in each study. Mice were sacrificed 6 h after the last injection at day 3 and blood and tissues (liver and brain) collected. Blood was centrifuged at 2500 rpm for 10 min and plasma was harvested. Plasma and tissues were analyzed on porphyrin content by LCMS/MS.

[2] = 2-h PK study in rats that underwent MCAO; assay type: in vivo
Procedure: Samples were prepared as described in [10] with modifications to accommodate the small tissue sizes and enhance the detection sensitivity. Quantitative liquid chromatography electrospray-ionization tandem mass spectrometry (LCMS/MS) analysis was performed on a Shimadzu 20A series HPLC (LC)-Applied Biosystems/MDS Sciex API 3200 QTrap or API 4000 QTrap tandem-mass spectrometer (MS/MS) as described earlier. The use of heptafluorobutyric acid (HFBA) mobile phase modifier as an ion-pairing agent increases the overall lipophilicity and volatility, which increases the retention and ionization efficiency of the analytes, affording an abundance of HFBA-associated ions. […] (OH)FeTnBuOE-2-PyP^4+ was prepared as described for other Fe(III) N-alkylpyridylporphyrins and analogous (H2O)MnTnBuOE-2-PyP^5+ [13, 16]. The solvents employed were: A = 95:5 H2O:MeCN (0.1% HFBA); B = MeCN (0.1% HFBA). […] With the chosen solvent system, all four atropoisomers collapsed into a single peak, enhancing the sensitivity of the method to as low as 0.5 nM (nanomoles per L of tissue homogenate). Analyses were performed using a Phenomenex Luna C18 guard cartridge (ID × L, 2 × 4 mm) only. […] Their structures are also shown. […] The response was calculated as the ratio between the standard peak area and the internal standard peak area. Another possible cause for the failure of therapeutics in stroke may be their slow accumulation in the brain, i.e., not being there in time to prevent the burst of reactive species and rapid activation of transcription factors, which perpetuate oxidative stress. We therefore conducted short-term 2-h PK to evaluate how fast post-MCAO our drug gets into the brain. Three rats per compound were subjected to 90 min of transient right MCAO as reported. The first dose of 0.225 mg/kg was given IV via the […] at 5 min after ischemia/reperfusion. The second dose of 0.225 mg/kg was given SC at 30 min after reperfusion. Blood was collected at 2 h and plasma harvested. Rats were perfused with heparin saline (2000 IU/500 mL) until no reddish fluid came out from the right atrium. Then, the liver, and left and right brain were collected and placed on dry ice and stored at -20 °C. Plasma, liver, and brain were analyzed by LCMS/MS.

mice [3] = conditions: mouse, in vivo, cited from earlier work
mice [4] = conditions: cited from earlier work
[5] = SC and IV 0.5 mg/kg twice daily 3 days

Q: What does the source list for “monohydroxo Fe(III) meso-tetrakis(N-n-hexylpyridinium-2yl)porphyrin [FeHex]”?
A: liver level ([1]; IV 0.5 mg/kg twice daily 3 days): 290 nM; liver level ([1]; SC 0.5 mg/kg twice daily 3 days): 126 nM; liver levels relative to MnHex [1, 5]: much lower levels; plasma levels relative to MnHex [1, 5]: Higher levels; level in injured (right) brain hemisphere ([2]; rats after 90-min MCAO, 0.225 mg/kg IV + 0.225 mg/kg SC, 2 h after reperfusion): ~ 55 nM; liver level relative to MnHex ([2]; rats after MCAO, 2 h): lower in the liver; plasma level relative to MnHex ([2]; rats after MCAO, 2 h): higher in plasma; blood pressure drop (mice [3]; ip, 10 mg/kg): does not; arterial hypotension in experimental animals (mice [3]): does not cause arterial hypotension; toxicity to mice relative to MnHex (mice [4]): less toxic to mice; toxicity / death of mice (mice [4]; mice, 5 mg/kg IP injection): no toxicity

From paper PMC7346179, “Fe Porphyrin-Based SOD Mimic and Redox-Active Compound, (OH)FeTnHex-2-PyP^4+, in a Rodent Ischemic Stroke (MCAO) Model: Efficacy and Pharmacokinetics as Compared to Its Mn Analogue, (H2O)MnTnHex-2-PyP^5+” (Antioxidants, 2020)
